These are literature values, as cited in PMC5688156, “The natural product carolacton inhibits folate-dependent C1 metabolism by targeting FolD/MTHFD” (Nature Communications, 2017).

This data set concerns human cells. Details: method as in PMID 9765352, PMID 9533527, PMID 9067281. The conditions noted are these: poor activity; cited from earlier work.

As to `Nc1nc2c(c(=O)[nH]1)N1C(=O)N(c3ccc(C(=O)N[C@@H](CCC(=O)O)C(=O)O)cc3)CC1CN2` (stereo partly shown) [LY345899], the IC50 was 128 µM.

As a reminder, the IC50 is the concentration that inhibits the measured activity by half.
